How the values were obtained:
[1] = tested on: C57/Bl6J DIO mice; test: 7 day dosing in diet-induced obesity (DIO) mouse model; format: in vivo; settings: 100 mg/kg PO 7 days
Text: (§1) Male C57/Bl6J DIO mice were obtained from The Jackson Laboratory (Sacramento, Calif.). […] Animals were accustomed to these conditions for at least 2 weeks before experimentation and used at approximately 24 weeks of age.
(§2) Significance was accepted when p<0.05.

[2] = tested on: C57/Bl6J DIO mice; test: Increasing dosages of Compound 72 for 7 days in diet-induced obesity mouse model; format: in vivo
Text: as §1, §2
Male C57/Bl6J DIO mice were obtained from The Jackson Laboratory (Sacramento, Calif.). […] Animals were accustomed to these conditions for at least 2 weeks before experimentation and used at approximately 26 weeks of age.

[3] = tested on: Dbp mRNA in whole blood of db/db mice; test: Dbp mRNA in whole blood of db/db mice after three daily doses; format: in vivo, mouse; settings: 100 mg/kg PO once daily 3 days, ZT7.5
Procedure: For whole blood RNA studies, male db/db mice (9 weeks of age, The Jackson Laboratory, Bar Harbor, Me.) were used for the experiment with n=8 mice for each experimental group. […] On the final day at ZT7.5 (2:30 pm), animals were euthanized using CO2 asphyxiation, and the blood collected from the heart via cardiac puncture. The blood was placed in RNALater solution to 1.5 ml total volume. Total RNA was prepared using an Ambion Mouse RiboPure Blood RNA Isolation Kit AM1951 as follows. Samples were centrifuged for 3 minutes, discarding the supernatant. Two ml of lysis solution was added and vortexed, transferred to a 15 ml tube followed by the addition of […]. Lysis buffer was added to a total volume of 3.8 ml and vortexed. The sample mixture was extracted with 1.5 ml Acid Phenol: Chloroform and the aqueous phase was recovered. After adding 0.5 volumes of 100% ethanol and vortexing, the samples were passed through a filter column provided in the kit and washed with 750 microliters of wash buffer 1. The filter was washed with 2 passes of 750 microliters wash buffer ⅔ and dried. RNA was eluted in 200 microliters of molecular biology grade water (RNase-free).
The levels of core clock gene mRNAs in whole blood may provide a non-invasive method of determining effects of compounds in treated subjects. […]

[4] = biological target: FAD-binding domain of human CRY1 protein (hCRY1) (Homo sapiens (Human), UniProt Q16526); test: Thermal shift binding assay (differential scanning fluorimetry); settings: purified hCRY1 FADBD, Sypro-Orange
Chain of FAD-binding domain of human CRY1 protein (hCRY1) (Q16526 1-494): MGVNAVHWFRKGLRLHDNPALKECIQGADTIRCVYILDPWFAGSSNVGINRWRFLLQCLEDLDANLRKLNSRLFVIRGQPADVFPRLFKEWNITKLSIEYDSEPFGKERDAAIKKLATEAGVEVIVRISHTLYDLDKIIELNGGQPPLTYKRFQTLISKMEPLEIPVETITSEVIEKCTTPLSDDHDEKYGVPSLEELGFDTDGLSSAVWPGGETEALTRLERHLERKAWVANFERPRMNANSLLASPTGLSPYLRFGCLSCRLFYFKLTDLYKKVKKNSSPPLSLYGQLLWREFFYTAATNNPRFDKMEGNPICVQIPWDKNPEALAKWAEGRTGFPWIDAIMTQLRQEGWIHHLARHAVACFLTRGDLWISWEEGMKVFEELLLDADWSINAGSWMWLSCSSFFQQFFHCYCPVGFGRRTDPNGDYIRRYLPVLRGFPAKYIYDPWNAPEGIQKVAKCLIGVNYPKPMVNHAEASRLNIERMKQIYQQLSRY
Procedure: Binding of compounds to the isolated FAD-binding domain of human CRY1 protein (hCRY1) was determined using a differential scanning fluorimetry (‘thermal shift’) assay (Pantoliano et al. (2001) J Biomol Screening 6, 429; Niesen et al. (2007) Nature Protocols 2, 2212). The FAD-binding domain of hCRY1 (amino acid residues 1-494) with a C-terminal Myc-DDK tag (FADBD), was produced by transient transfection of HEK293T cells (Catalog # CRL-3216, American Type Culture Collection) and purified by anti-FLAG affinity chromatography (Catalog # A2220, Sigma-Aldrich). FADBD (0.5 μg per well) was incubated with dilutions of compounds in DMSO (5% DMSO final concentration in reaction) in 17.5 μl Tris-buffered saline (TBS) for 10 minutes on ice, then 2.5 μl of 8× Sypro-Orange Dye (Life Technologies) was added to each well. Triplicate wells were assayed for each compound concentration. The melting temperatures were measured in an ABI7500 quantitative PCR instrument using the melt curve mode with a thermal profile of 2 minutes at 25° C., followed by a ramp rate of 1° C./minute up to 99° C. The melting temperature for each well was determined from the first derivative of the melt curve. The change in melting temperature (ΔTm) was obtained by subtraction of the melting temperature of the FADBD in 5% DMSO alone.

- change in melting temperature (ΔTm) [4]: dose-dependent increase
SMILES: O=C1NCCN1CC(O)Cn1c2ccc(F)cc2c2cc(F)ccc21 (stereo not shown) [Compound 72, 1-(3-(3,6-difluoro-9H-carbazol-9-yl)-2-hydroxypropyl)imidazolidin-2-one]
- HOMA-IR [1]: 32.54+/−3.37 units
- fasting blood glucose [1]: 177.1 ± 8.28 mg/dL
- glucose AUC calculated from the OGTT [1]: 17055+/−769.1
- plasma insulin at t=0 [1]: 3.12 ± 0.24 ng/mL
- plasma insulin at t=2 hr [1]: 2.88 ± 0.21 ng/mL
- fasting blood glucose ([2]; 10 mg/kg QD PO 7 days): 206.8 ± 8.36 mg/dL
- glucose AUC from OGTT ([2]; 10 mg/kg QD PO 7 days): 22563+/−1224 units
- fasting blood glucose ([2]; 30 mg/kg QD PO 7 days): 197.5 ± 12.06 mg/dL
- glucose AUC from OGTT ([2]; 30 mg/kg QD PO 7 days): 19033+/−1934 units
- fasting blood glucose ([2]; 100 mg/kg QD PO 7 days): 176.3 ± 7.83 mg/dL
- glucose AUC from OGTT ([2]; 100 mg/kg QD PO 7 days): 19502+/−2404 units
- Dbp gene expression in whole blood [3]: statistically significant suppression
